Columns and labels:
Type in all cases: in vivo
[1] = system: barnyardgrass (Echinochloa crus-galli); test: Test G Pre-Emergence Protocol; details: Echinochloa crus-galli, pre-emergence, 312 h, evaluated after 13 days; for pest or weed control at 15.625 g/ha: 15.625 g ai/ha; for pest or weed control at 15.625 g/ha / pest or weed control at 250 g/ha: read-out: Barnyardgrass damage rating (100=total damage to plant; 0=no damage to plant); for pest or weed control at 62.5 g/ha: 62.5 g ai/ha, 100=total damage to plant, 0=no damage to plant, read-out: Barnyardgrass damage rating; for pest or weed control at 250 g/ha: 250 g ai/ha
Outline: (§1)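 Pots of seeds in standard soil were grown for one day in a glasshouse (24/16 °C day/night, 14 h light, 65% humidity), then sprayed with compound in acetone/water 50:50 with 0.5% Tween 20 at 15.625, 62.5 or 250 g/ha. Damage was scored after 13 days on a 0 (none) to 100 (total) scale.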

[2] = system: corn (Zea mays); test: Test G Pre-Emergence Protocol; details: Zea mays, pre-emergence, 312 h, evaluated after 13 days; for plant injury at 15.625 g/ha: 15.625 g ai/ha; for plant injury at 15.625 g/ha / plant injury at 250 g/ha: read-out: Corn damage rating (100=total damage to plant; 0=no damage to plant); for plant injury at 62.5 g/ha: 62.5 g ai/ha, 100=total damage to plant, 0=no damage to plant, read-out: Corn damage rating; for plant injury at 250 g/ha: 250 g ai/ha
Outline: as §1

[3] = system: giant foxtail (Setaria faberi); test: Test G Pre-Emergence Protocol; details: Setaria faberi, pre-emergence, 312 h, evaluated after 13 days; for pest or weed control at 15.625 g/ha: 15.625 g ai/ha; for pest or weed control at 15.625 g/ha / pest or weed control at 250 g/ha: read-out: Foxtail, Giant damage rating (100=total damage to plant; 0=no damage to plant); for pest or weed control at 62.5 g/ha: 62.5 g ai/ha, 100=total damage to plant, 0=no damage to plant, read-out: Foxtail, Giant damage rating; for pest or weed control at 250 g/ha: 250 g ai/ha
Outline: as §1

[4] = system: ivy-leaved morning glory (Ipomoea hederacea); test: Test G Pre-Emergence Protocol; details: Ipomoea, pre-emergence, 312 h, evaluated after 13 days; for pest or weed control at 15.625 g/ha: 15.625 g ai/ha; for pest or weed control at 15.625 g/ha / pest or weed control at 250 g/ha: read-out: Morningglory, Ivy-leaved damage rating (100=total damage to plant; 0=no damage to plant); for pest or weed control at 62.5 g/ha: 62.5 g ai/ha, 100=total damage to plant, 0=no damage to plant, read-out: Morningglory, Ivy-leaved damage rating; for pest or weed control at 250 g/ha: 250 g ai/ha
Outline: as §1

[5] = system: redroot pigweed (Amaranthus retroflexus); test: Test G Pre-Emergence Protocol; details: Amaranthus retroflexus, pre-emergence, 312 h, evaluated after 13 days; for pest or weed control at 15.625 g/ha: 15.625 g ai/ha; for pest or weed control at 15.625 g/ha / pest or weed control at 250 g/ha: read-out: Pigweed, Redroot damage rating (100=total damage to plant; 0=no damage to plant); for pest or weed control at 62.5 g/ha: 62.5 g ai/ha, 100=total damage to plant, 0=no damage to plant, read-out: Pigweed, Redroot damage rating; for pest or weed control at 250 g/ha: 250 g ai/ha
Outline: as §1

[6] = system: velvetleaf (Abutilon theophrasti); test: Test G Pre-Emergence Protocol; details: Abutilon theophrasti, pre-emergence, 312 h, evaluated after 13 days; for pest or weed control at 15.625 g/ha: 15.625 g ai/ha; for pest or weed control at 15.625 g/ha / pest or weed control at 250 g/ha: read-out: Velvetleaf damage rating (100=total damage to plant; 0=no damage to plant); for pest or weed control at 62.5 g/ha: 62.5 g ai/ha, 100=total damage to plant, 0=no damage to plant, read-out: Velvetleaf damage rating; for pest or weed control at 250 g/ha: 250 g ai/ha
Outline: as §1

[7] = system: barnyardgrass (Echinochloa crus-galli); test: Test G Post-Emergence Protocol; details: Echinochloa crus-galli, post-emergence, 312 h, read-out: Barnyardgrass damage rating; for pest or weed control at 15.625 g/ha: 15.625 g ai/ha, evaluated after 13 days (100=total damage to plant; 0=no damage to plant); for pest or weed control at 62.5 g/ha: 62.5 g ai/ha; for pest or weed control at 62.5 g/ha / pest or weed control at 250 g/ha: evaluated after 13 days, 100=total damage to plant, 0=no damage to plant; for pest or weed control at 250 g/ha: 250 g ai/ha
Outline: (§2)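 Scores run 0 (no damage) to 100 (total damage) and were taken 13 days after spraying. Plants had been raised in pots for 8 days under glasshouse control (24/16 °C, 14 h photoperiod, 65% humidity) and then treated at 15.625, 62.5 or 250 g/ha.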

[8] = system: corn (Zea mays); test: Test G Post-Emergence Protocol; details: Zea mays, post-emergence, 312 h, read-out: Corn damage rating; for plant injury at 15.625 g/ha: 15.625 g ai/ha, evaluated after 13 days (100=total damage to plant; 0=no damage to plant); for plant injury at 62.5 g/ha: 62.5 g ai/ha; for plant injury at 62.5 g/ha / plant injury at 250 g/ha: evaluated after 13 days, 100=total damage to plant, 0=no damage to plant; for plant injury at 250 g/ha: 250 g ai/ha
Outline: as §2

[9] = system: giant foxtail (Setaria faberi); test: Test G Post-Emergence Protocol; details: Setaria faberi, post-emergence, 312 h, read-out: Foxtail, Giant damage rating; for pest or weed control at 15.625 g/ha: 15.625 g ai/ha, evaluated after 13 days (100=total damage to plant; 0=no damage to plant); for pest or weed control at 62.5 g/ha: 62.5 g ai/ha; for pest or weed control at 62.5 g/ha / pest or weed control at 250 g/ha: evaluated after 13 days, 100=total damage to plant, 0=no damage to plant; for pest or weed control at 250 g/ha: 250 g ai/ha
Outline: as §2

[10] = system: ivy-leaved morning glory (Ipomoea hederacea); test: Test G Post-Emergence Protocol; details: Ipomoea, post-emergence, 312 h, read-out: Morningglory, Ivy-leaved damage rating; for pest or weed control at 15.625 g/ha: 15.625 g ai/ha, evaluated after 13 days (100=total damage to plant; 0=no damage to plant); for pest or weed control at 62.5 g/ha: 62.5 g ai/ha; for pest or weed control at 62.5 g/ha / pest or weed control at 250 g/ha: evaluated after 13 days, 100=total damage to plant, 0=no damage to plant; for pest or weed control at 250 g/ha: 250 g ai/ha
Outline: as §2

[11] = system: redroot pigweed (Amaranthus retroflexus); test: Test G Post-Emergence Protocol; details: Amaranthus retroflexus, post-emergence, 312 h, read-out: Pigweed, Redroot damage rating; for pest or weed control at 15.625 g/ha: 15.625 g ai/ha, evaluated after 13 days (100=total damage to plant; 0=no damage to plant); for pest or weed control at 62.5 g/ha: 62.5 g ai/ha; for pest or weed control at 62.5 g/ha / pest or weed control at 250 g/ha: evaluated after 13 days, 100=total damage to plant, 0=no damage to plant; for pest or weed control at 250 g/ha: 250 g ai/ha
Outline: as §2

[12] = system: velvetleaf (Abutilon theophrasti); test: Test G Post-Emergence Protocol; details: Abutilon theophrasti, post-emergence, 312 h, read-out: Velvetleaf damage rating; for pest or weed control at 15.625 g/ha: 15.625 g ai/ha, evaluated after 13 days (100=total damage to plant; 0=no damage to plant); for pest or weed control at 62.5 g/ha: 62.5 g ai/ha; for pest or weed control at 62.5 g/ha / pest or weed control at 250 g/ha: evaluated after 13 days, 100=total damage to plant, 0=no damage to plant; for pest or weed control at 250 g/ha: 250 g ai/ha
Outline: as §2

Structure (SMILES) | pest or weed control at 15.625 g/ha [1] | pest or weed control at 62.5 g/ha [1] | pest or weed control at 250 g/ha [1] | plant injury at 15.625 g/ha [2] | plant injury at 62.5 g/ha [2] | plant injury at 250 g/ha [2] | pest or weed control at 15.625 g/ha [3] | pest or weed control at 62.5 g/ha [3] | pest or weed control at 250 g/ha [3] | pest or weed control at 15.625 g/ha [4] | pest or weed control at 62.5 g/ha [4] | pest or weed control at 250 g/ha [4] | pest or weed control at 15.625 g/ha [5] | pest or weed control at 62.5 g/ha [5] | pest or weed control at 250 g/ha [5] | pest or weed control at 15.625 g/ha [6] | pest or weed control at 62.5 g/ha [6] | pest or weed control at 250 g/ha [6] | pest or weed control at 15.625 g/ha [7] | pest or weed control at 62.5 g/ha [7] | also measured
CN1C[C@H](c2ccnc(C(C)(C)C)n2)[C@@H](C(=O)Nc2ccc(F)c(F)c2F)C1=O (racemic) [Compound 1770] | 0% | 20% | 70% | 0% | 0% | 0% | 0% | 50% | 80% | 0% | 0% | 30% | 0% | 0% | 10% | 0% | 0% | 20% | 0% | 0% | pest or weed control at 250 g/ha [7]: 70%; plant injury at 15.625 g/ha [8]: 0%; plant injury at 62.5 g/ha [8]: 0%; plant injury at 250 g/ha [8]: 0%; pest or weed control at 15.625 g/ha [9]: 0%; pest or weed control at 62.5 g/ha [9]: 20%; pest or weed control at 250 g/ha [9]: 70%; pest or weed control at 15.625 g/ha [10]: 0%; pest or weed control at 62.5 g/ha [10]: 10%; pest or weed control at 250 g/ha [10]: 20%; pest or weed control at 15.625 g/ha [11]: 0%; pest or weed control at 62.5 g/ha [11]: 20%; pest or weed control at 250 g/ha [11]: 40%; pest or weed control at 15.625 g/ha [12]: 0%; pest or weed control at 62.5 g/ha [12]: 10%; pest or weed control at 250 g/ha [12]: 30%
CN1C[C@H](c2ccc(Cl)cc2)[C@@H](C(=O)Nc2cnccc2C(F)(F)F)C1=O [Compound 1812] | 0% | 0% | 70% | 0% | 0% | 40% | 90% | 90% | 90% | 0% | 0% | 40% | 0% | 20% | 70% | 0% | 40% | 80% | 0% | 0% | pest or weed control at 250 g/ha [7]: 70%; plant injury at 15.625 g/ha [8]: 0%; plant injury at 62.5 g/ha [8]: 0%; plant injury at 250 g/ha [8]: 50%; pest or weed control at 15.625 g/ha [9]: 0%; pest or weed control at 62.5 g/ha [9]: 80%; pest or weed control at 250 g/ha [9]: 80%; pest or weed control at 15.625 g/ha [10]: 0%; pest or weed control at 62.5 g/ha [10]: 50%; pest or weed control at 250 g/ha [10]: 70%; pest or weed control at 15.625 g/ha [11]: 0%; pest or weed control at 62.5 g/ha [11]: 20%; pest or weed control at 250 g/ha [11]: 50%; pest or weed control at 15.625 g/ha [12]: 0%; pest or weed control at 62.5 g/ha [12]: 10%; pest or weed control at 250 g/ha [12]: 60%

Source: patent US12077503B2, “Substituted cyclic amides and their use as herbicides” (FMC CORPORATION, priority 2015, dated 2024)
